For 29 compounds, IC50 results are on record in patent publication US8183239B2, “Substituted piperazines and piperidines as modulators of the neuropeptide Y2 receptor” (Janssen Pharmaceutica NV, priority 2005, dated 2012).

SMILES strings stand for the structures. Like-named read-outs stand apart in the source and are kept apart here.

This assay deals with T1, Y2 receptors (Homo sapiens, UniProt P49146).
T1 construct: endogenous in cells; host or cells: KAN-Ts cells (membranes)
T1 sequence (P49146 1-381): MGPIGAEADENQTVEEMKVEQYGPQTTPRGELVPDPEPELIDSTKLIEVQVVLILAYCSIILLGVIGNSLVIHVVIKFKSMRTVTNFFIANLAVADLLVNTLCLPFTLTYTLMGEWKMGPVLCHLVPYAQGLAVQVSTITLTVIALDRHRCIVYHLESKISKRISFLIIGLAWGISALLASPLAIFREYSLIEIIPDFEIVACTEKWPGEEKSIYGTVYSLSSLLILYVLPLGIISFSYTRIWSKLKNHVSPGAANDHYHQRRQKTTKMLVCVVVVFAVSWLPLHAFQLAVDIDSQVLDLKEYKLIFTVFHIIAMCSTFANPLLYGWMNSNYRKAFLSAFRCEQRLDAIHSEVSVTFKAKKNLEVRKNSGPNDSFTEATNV
The assay can be described thus: Radioligand binding assay ([125I]PYY, KAN-Ts cell membranes). Conditions: Table 1, [125I]PYY 80 pM, average of results. As for the experimental part:
Radioligand Binding Assay
KAN-Ts endogenously expressing Y2 receptors were used for the radioligand binding assay. Cells were grown to confluence on 150 cm^2 tissue culture plates, washed with phosphate-buffered saline (PBS), and scraped into 50 mL tubes. After centrifugation, the supernatant was aspirated, and the pellets frozen and stored at −80° C. Thawed pellets were homogenized with a polytron tissue grinder for 15 sec in 20 mM Tris-HCl, 5 mM EDTA. The homogenate was centrifuged at 800×g for 5 min and the collected supernatant was recentrifuged at 25000×g for 25 min. The resulting pellet was resuspended in binding buffer (20 mM HEPES, 120 mM NaCl, 0.22 mM KH2PO4, 1.3 mM CaCl2, 0.8 mM MgSO4). Membranes were incubated with [^125I]PYY (80 pM) in the presence or absence of test compound for 1 h at rt. The reaction was stopped by filtration through GF/C filter plates pre-soaked in 0.3% polyethylenimine and subsequently washed with Tris 50 mM, 5 mM EDTA buffer. Plates were dried for 1 h in a 55° C. oven, scintillation fluid was added and the radioactivity was counted in a Packard TopCount. Specific binding to the NPY receptor subtypes was determined by radioactivity that was bound in the presence of […]. Each binding experiment was repeated three to eight times, each in duplicate. IC50 values (i.e. concentration of unlabelled peptide or antagonist required to compete for 50% of specific binding to the radioligand) were calculated using the GraphPad Prism software (GraphPad Software Inc., San Diego Calif.) with a fit to a sigmoidal dose response curve. Data for compounds tested are presented in Tables 1 and 2 as an average of results obtained.

For `CCNC(=O)C(c1ccccc1)N1CCN(c2ccc(NC(=O)NCc3ccc(F)cc3)cc2F)CC1` (centres unmarked) [Example 26, N-Ethyl-2-(4-{2-fluoro-4-[3-(4-fluoro-benzyl)-ureido]-phenyl}-piperazin-1-yl)-2-phenyl-acetamide], the IC50 (read-out: IC50) is 2000 nM.
Same read-out and setting: the result for `CCNC(=O)C(c1ccccc1)N1CCN(c2ccc(NC(=O)N[C@@H](C)c3ccc(F)cc3)cc2F)CC1` (stereo partly drawn) [Example 28, N-Ethyl-2-[4-(2-fluoro-4-{3-[(S)-1-(4-fluoro-phenyl)-ethyl]-ureido}-phenyl)-piperazin-1-yl]-2-phenyl-acetamide] reads 2900 nM.
On the same count and under the same terms, for `CCN(CC)C(=O)C(c1ccccc1)N1CCN(c2ccc(NC(=O)[C@H]3CCOC3)cc2F)CC1` (stereo partly drawn) [Example 29, (S)-Tetrahydro-furan-3-carboxylic acid {4-[4-(diethylcarbamoyl-phenyl-methyl)-piperazin-1-yl]-3-fluoro-phenyl}-amide] the value was 65 nM; for `CCN(CC)C(=O)C(c1ccccc1)N1CCN(c2ccc(N(CC)C(=O)N(CC)c3c(C)noc3C)cc2F)CC1` (centres unmarked) [Example 30, 2-(4-{4-[3-(3,5-Dimethyl-isoxazol-4-yl)-1,3-diethyl-ureido]-2-fluoro-phenyl}-piperazin-1-yl)-N,N-diethyl-2-phenyl-acetamide], 570 nM.
Turning to `CCN(CC)C(=O)C(c1ccccc1)N1CCN(c2ccc(C(=O)NCc3c(C)noc3C)cc2F)CC1` (centres unmarked) [Example 31, 4-[4-(Diethylcarbamoyl-phenyl-methyl)-piperazin-1-yl]-N-(3,5-dimethyl-isoxazol-4-ylmethyl)-3-fluoro-benzamide], the IC50 (read-out: IC50) is 24 nM.
Under “IC50 (nM)”, `CCC(CC)C(=O)N(c1ccccc1)C1CCN(c2ccc(NC(=O)Nc3c(C)noc3C)cc2F)CC1` [Example 32, N-(1-{4-[3-(3,5-Dimethyl-isoxazol-4-yl)-ureido]-2-fluoro-phenyl}-piperidin-4-yl)-2-ethyl-N-phenyl-butyramide] returned an IC50 of 180 nM.
The same measure, in the same setting: for `CCC(CC)C(=O)Nc1ccc(N2CCC(N(C(=O)C(CC)CC)c3ccccc3)CC2)c(F)c1` [Example 33, 2-Ethyl-N-{1-[4-(2-ethyl-butyrylamino)-2-fluoro-phenyl]-piperidin-4-yl}-N-phenyl-butyramide] the value was 180 nM; for `CCC(CC)C(=O)Nc1ccc(N2CCN(C(C(=O)OC)c3cccc(F)c3)CC2)c(F)c1` (centres unmarked) [Example 34, {4-[4-(2-Ethyl-butyrylamino)-2-fluoro-phenyl]-piperazin-1-yl}-(3-fluoro-phenyl)-acetic acid methyl ester], 40 nM.
Take `CCC(CC)C(=O)Nc1ccc(N2CCN(C(C(=O)N(CC)CC)c3cccc(F)c3)CC2)c(F)c1` (centres unmarked) [Example 35, N-(4-{4-[Diethylcarbamoyl-(3-fluoro-phenyl)-methyl]-piperazin-1-yl}-3-fluoro-phenyl)-2-ethyl-butyramide]: the IC50 (read-out: IC50) is 33 nM.
Still for that read-out and setting: for `CCC(CC)C(=O)Nc1ccc(N2CCN(C(C(=O)OC)c3ccc(C#N)cc3)CC2)c(F)c1` (centres unmarked) [Example 36, (4-Cyano-phenyl)-{4-[4-(2-ethyl-butyrylamino)-2-fluoro-phenyl]-piperazin-1-yl}-acetic acid methyl ester] the value was 210 nM; for `CCC(CC)C(=O)Nc1ccc(N2CCN(C(C(=O)OC)c3cccc(Cl)c3)CC2)c(F)c1` (centres unmarked) [Example 37, (3-Chloro-phenyl)-{4-[4-(2-ethyl-butyrylamino)-2-fluoro-phenyl]-piperazin-1-yl}-acetic acid methyl ester], 56 nM.
For `CCC(CC)C(=O)Nc1ccc(N2CCN(C(C(=O)OC)c3cccc(F)c3F)CC2)c(F)c1` (centres unmarked) [Example 38, (2,3-Difluoro-phenyl)-{4-[4-(2-ethyl-butyrylamino)-2-fluoro-phenyl]-piperazin-1-yl}-acetic acid methyl ester], the IC50 (read-out: IC50) came to 440 nM.
As to `COC(=O)C(c1ccccc1)N1CCN(c2ccc(NC(=O)c3ccccc3C)cc2Cl)CC1` (centres unmarked) [Example 39, {4-[2-Chloro-4-(2-methyl-benzoylamino)-phenyl]-piperazin-1-yl}-phenyl-acetic acid methyl ester], the IC50 (read-out: IC50) stood at 800 nM.
Still for that read-out and setting: for `CCC(CC)C(=O)Nc1cc(F)c(N2CCN(C(C(=O)OC)c3ccccc3)CC2)c(F)c1` (centres unmarked) [Example 40, {4-[4-(2-Ethyl-butyrylamino)-2,6-difluoro-phenyl]-piperazin-1-yl}-phenyl-acetic acid methyl ester] the value was 110 nM; for `CCC(CC)C(=O)Nc1cc(Cl)c(N2CCN(C(C(=O)OC)c3ccccc3)CC2)c(Cl)c1` (centres unmarked) [Example 41, {4-[2,6-Dichloro-4-(2-ethyl-butyrylamino)-phenyl]-piperazin-1-yl}-phenyl-acetic acid methyl ester], 77 nM; for `CCNC(=O)C(c1ccccc1)N1CCN(c2ccc(NC(=O)C(CC)CC)c(F)c2)CC1` (centres unmarked) [Example 42, 2-Ethyl-N-{4-[4-(ethylcarbamoyl-phenyl-methyl)-piperazin-1-yl]-2-fluoro-phenyl}-butyramide], 4830 nM.
The same measure, in the same setting: for `CCNC(=O)C(c1ccccc1)C1CCN(c2ccc(NC(=O)C(CC)CC)cc2C#N)CC1` (centres unmarked) [Example 43, N-{3-Cyano-4-[4-(ethylcarbamoyl-phenyl-methyl)-piperidin-1-yl]-phenyl}-2-ethyl-butyramide] the value was 14 nM; for `CCC(CC)C(=O)Nc1ccc(N2CCN(C(C(=O)OC)c3ccccc3)CC2)c(F)c1` (centres unmarked) [Example 44, {4-[4-(2-Ethyl-butyrylamino)-2-fluoro-phenyl]-piperazin-1-yl}-phenyl-acetic acid methyl ester], 131 nM; for `COC(=O)C(c1ccccc1)N1CCN(c2ccc(NC(=O)C3Cc4ccccc43)cc2)CC1` (centres unmarked) [Example 45, (4-{4-[(Bicyclo[4.2.0]octa-1 (6),2,4-triene-7-carbonyl)-amino]-phenyl}-piperazin-1-yl)-phenyl-acetic acid methyl ester], 4000 nM.
Still for that read-out and setting: for `COC(=O)C(c1ccccc1)N1CCN(c2ccc(NC(=O)c3ccccc3I)cc2)CC1` (centres unmarked) [Example 46, {4-[4-(2-Iodo-benzoylamino)-phenyl]-piperazin-1-yl}-phenyl-acetic acid methyl ester] the value was 6000 nM; for `COC(=O)C(c1ccccc1)N1CCN(c2ccc(NC(=O)c3ccccc3)cc2)CC1` (centres unmarked) [Example 47, [4-(4-Benzoylamino-phenyl)-piperazin-1-yl]-phenyl-acetic acid methyl ester], 10000 nM; for `COC(=O)C(c1ccccc1)N1CCN(c2ccc(NC(=O)c3ccccc3C3CCCCC3)cc2)CC1` (centres unmarked) [Example 49, {4-[4-(2-Cyclohexyl-benzoylamino)-phenyl]-piperazin-1-yl}-phenyl-acetic acid methyl ester], 1300 nM.
`COC(=O)C(c1ccccc1)N1CCN(c2ccc(NC(=O)c3ccccc3C)cc2)CC1` (centres unmarked) [Example 50, {4-[4-(2-Methyl-benzoylamino)-phenyl]-piperazin-1-yl}-phenyl-acetic acid methyl ester]: the IC50 (read-out: IC50) was 1800 nM.
For the compound `CCc1ccccc1C(=O)Nc1ccc(N2CCN(C(C(=O)OC)c3ccccc3)CC2)cc1` (centres unmarked) [Example 51, {4-[4-(2-Ethyl-benzoylamino)-phenyl]-piperazin-1-yl}-phenyl-acetic acid methyl ester], the IC50 (read-out: IC50) was 1850 nM.
Turning to `COC(=O)C(c1ccccc1)N1CCN(c2ccc(NC(=O)c3ccccc3C(C)C)cc2)CC1` (centres unmarked) [Example 52, {4-[4-(2-Isopropyl-benzoylamino)-phenyl]-piperazin-1-yl}-phenyl-acetic acid methyl ester], the IC50 (read-out: IC50) came out at 1400 nM.
The same measure, in the same setting: for `COC(=O)C(c1ccccc1)N1CCN(c2ccc(NC(=O)c3ccccc3Cl)cc2)CC1` (centres unmarked) [Example 53, {4-[4-(2-Chloro-benzoylamino)-phenyl]-piperazin-1-yl}-phenyl-acetic acid methyl ester] the value was 12600 nM; for `COC(=O)C(c1ccccc1)N1CCN(c2ccc(NC(=O)c3ccccc3OC)cc2)CC1` (centres unmarked) [Example 56, {4-[4-(2-Methoxy-benzoylamino)-phenyl]-piperazin-1-yl}-phenyl-acetic acid methyl ester], 4000 nM; for `CNc1ccccc1C(=O)Nc1ccc(N2CCN(C(C(=O)OC)c3ccccc3)CC2)cc1` (centres unmarked) [Example 58, {4-[4-(2-Methylamino-benzoylamino)-phenyl]-piperazin-1-yl}-phenyl-acetic acid methyl ester], 3000 nM.
Consider `COC(=O)C(c1ccccc1)N1CCN(c2ccc(NC(=O)C3CCCC3)cc2)CC1` (centres unmarked) [Example 59, {4-[4-(Cyclopentanecarbonyl-amino)-phenyl]-piperazin-1-yl}-phenyl-acetic acid methyl ester], for which the IC50 (read-out: IC50) stood at 13100 nM.
